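Dose response: 5 concentrations. Exposure: 48 h. Format: 96-well plates. Endpoint: linear interpolation; highest concentration if not reached. GI50 marks 50% less growth. Definition used: TGI = concentration required for complete inhibition of growth.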
What was measured:
Assay in all cases: NCI tumour cell line growth inhibition, 48 h
786-0 renal = tested on: 786-0 renal
HCT-15 colon = tested on: HCT-15 colon
CAKI-1 renal = tested on: CAKI-1 renal
MOLT-4 leukemia = tested on: MOLT-4 leukemia
SK-MEL-28 melanoma = tested on: SK-MEL-28 melanoma
KM12 colon = tested on: KM12 colon
SNB-75 CNS = tested on: SNB-75 CNS
NCI/ADR-RES ovarian = tested on: NCI/ADR-RES ovarian
HOP-62 NSCLC = tested on: HOP-62 NSCLC
OVCAR-5 ovarian = tested on: OVCAR-5 ovarian
COLO 205 colon = tested on: COLO 205 colon
RXF 393 renal = tested on: RXF 393 renal
CCRF-CEM leukemia = tested on: CCRF-CEM leukemia
UACC-257 melanoma = tested on: UACC-257 melanoma
A498 renal = tested on: A498 renal
T-47D breast = tested on: T-47D breast
NCI-H460 lung = tested on: NCI-H460 lung
K-562 leukemia = tested on: K-562 leukemia
DU-145 prostate = tested on: DU-145 prostate
SK-MEL-2 melanoma = tested on: SK-MEL-2 melanoma
UO-31 renal = tested on: UO-31 renal
SF-268 CNS = tested on: SF-268 CNS
SF-295 CNS = tested on: SF-295 CNS
PC-3 prostate = tested on: PC-3 prostate
OVCAR-3 ovarian = tested on: OVCAR-3 ovarian
MDA-N = tested on: MDA-N
OVCAR-8 ovarian = tested on: OVCAR-8 ovarian
EKVX NSCLC = tested on: EKVX NSCLC
HL-60(TB) leukemia = tested on: HL-60(TB) leukemia
ACHN renal = tested on: ACHN renal
NCI-H23 lung = tested on: NCI-H23 lung
MALME-3M melanoma = tested on: MALME-3M melanoma
IGROV1 ovarian = tested on: IGROV1 ovarian
SNB-19 CNS = tested on: SNB-19 CNS
NCI-H522 lung = tested on: NCI-H522 lung
NCI-H226 lung = tested on: NCI-H226 lung
HCC-2998 colon = tested on: HCC-2998 colon
SK-OV-3 ovarian = tested on: SK-OV-3 ovarian
M14 melanoma = tested on: M14 melanoma
TK-10 renal = tested on: TK-10 renal
SK-MEL-5 melanoma = tested on: SK-MEL-5 melanoma
SR leukemia = tested on: SR leukemia
HT29 colon = tested on: HT29 colon
RPMI-8226 leukemia = tested on: RPMI-8226 leukemia
SW-620 colon = tested on: SW-620 colon
HOP-92 NSCLC = tested on: HOP-92 NSCLC
MDA-MB-231 breast = tested on: MDA-MB-231 breast
HCT-116 colon = tested on: HCT-116 colon
A549 NSCLC = tested on: A549 NSCLC
MCF7 breast = tested on: MCF7 breast
SF-539 CNS = tested on: SF-539 CNS
SN12C renal = tested on: SN12C renal
U251 CNS = tested on: U251 CNS
HS 578T breast = tested on: HS 578T breast
OVCAR-4 ovarian = tested on: OVCAR-4 ovarian
LOX IMVI melanoma = tested on: LOX IMVI melanoma
UACC-62 melanoma = tested on: UACC-62 melanoma
MDA-MB-435 = tested on: MDA-MB-435

Structure (SMILES): O=C(NCCOC(=O)OCCNC(=O)NC1CCCCC1)NC1CCCCC1
- TGI (786-0 renal): > 100 µM
- TGI (HCT-15 colon): > 100 µM
- TGI (CAKI-1 renal): > 100 µM
- TGI (MOLT-4 leukemia): > 100 µM
- TGI (SK-MEL-28 melanoma): > 100 µM
- TGI (KM12 colon): > 100 µM
- TGI (SNB-75 CNS): > 100 µM
- TGI (NCI/ADR-RES ovarian): > 100 µM
- TGI (HOP-62 NSCLC): > 100 µM
- TGI (OVCAR-5 ovarian): > 100 µM
- TGI (COLO 205 colon): > 100 µM
- TGI (RXF 393 renal): > 100 µM
- TGI (CCRF-CEM leukemia): > 100 µM
- TGI (UACC-257 melanoma): > 100 µM
- TGI (A498 renal): > 100 µM
- TGI (T-47D breast): > 100 µM
- TGI (NCI-H460 lung): > 100 µM
- TGI (K-562 leukemia): > 100 µM
- TGI (DU-145 prostate): > 100 µM
- TGI (SK-MEL-2 melanoma): > 100 µM
- TGI (UO-31 renal): > 100 µM
- TGI (SF-268 CNS): > 100 µM
- TGI (SF-295 CNS): > 100 µM
- TGI (PC-3 prostate): > 100 µM
- TGI (OVCAR-3 ovarian): > 100 µM
- TGI (MDA-N): > 100 µM
- TGI (OVCAR-8 ovarian): > 100 µM
- TGI (EKVX NSCLC): > 100 µM
- TGI (HL-60(TB) leukemia): > 100 µM
- TGI (ACHN renal): > 100 µM
- TGI (NCI-H23 lung): > 100 µM
- TGI (MALME-3M melanoma): > 100 µM
- TGI (IGROV1 ovarian): > 100 µM
- TGI (SNB-19 CNS): > 100 µM
- TGI (NCI-H522 lung): > 100 µM
- TGI (NCI-H226 lung): > 100 µM
- TGI (HCC-2998 colon): > 100 µM
- TGI (SK-OV-3 ovarian): > 100 µM
- TGI (M14 melanoma): > 100 µM
- TGI (TK-10 renal): > 100 µM
- TGI (SK-MEL-5 melanoma): > 100 µM
- TGI (SR leukemia): > 100 µM
- TGI (HT29 colon): > 100 µM
- TGI (RPMI-8226 leukemia): > 100 µM
- TGI (SW-620 colon): > 100 µM
- TGI (HOP-92 NSCLC): 79 µM
- TGI (MDA-MB-231 breast): > 100 µM
- TGI (HCT-116 colon): > 100 µM
- TGI (A549 NSCLC): > 100 µM
- TGI (MCF7 breast): > 100 µM
- TGI (SF-539 CNS): > 100 µM
- TGI (SN12C renal): > 100 µM
- TGI (U251 CNS): > 100 µM
- TGI (HS 578T breast): > 100 µM
- TGI (OVCAR-4 ovarian): > 100 µM
- TGI (LOX IMVI melanoma): > 100 µM
- TGI (UACC-62 melanoma): > 100 µM
- TGI (MDA-MB-435): > 100 µM

Structure (SMILES): C[C@]1(O)CC[C@H]2[C@@H]3CCc4cc(O)ccc4[C@H]3CC[C@@]21C
- TGI (786-0 renal): > 100 µM
- TGI (HCT-15 colon): > 100 µM
- TGI (CAKI-1 renal): > 100 µM
- TGI (MOLT-4 leukemia): > 100 µM
- TGI (SK-MEL-28 melanoma): > 100 µM
- TGI (KM12 colon): 12.1 µM
- TGI (SNB-75 CNS): > 100 µM
- TGI (NCI/ADR-RES ovarian): > 100 µM
- GI50 (HOP-62 NSCLC): 18.4 µM
- TGI (HOP-62 NSCLC): > 100 µM
- TGI (OVCAR-5 ovarian): > 100 µM
- TGI (COLO 205 colon): > 100 µM
- TGI (RXF 393 renal): 4.05 µM
- TGI (CCRF-CEM leukemia): 80.1 µM
- TGI (UACC-257 melanoma): 77.1 µM
- TGI (A498 renal): 9.61 µM
- TGI (T-47D breast): > 100 µM
- TGI (NCI-H460 lung): > 100 µM
- GI50 (DU-145 prostate): 1.98 µM
- TGI (DU-145 prostate): 8.25 µM
- TGI (SK-MEL-2 melanoma): > 100 µM
- TGI (UO-31 renal): 61.2 µM
- TGI (SF-268 CNS): 68.3 µM
- TGI (SF-295 CNS): 13 µM
- TGI (PC-3 prostate): > 100 µM
- GI50 (OVCAR-3 ovarian): 0.663 µM
- TGI (OVCAR-3 ovarian): 42.9 µM
- TGI (MDA-N): 0.651 µM
- TGI (OVCAR-8 ovarian): 64.8 µM
- TGI (EKVX NSCLC): 9.08 µM
- TGI (HL-60(TB) leukemia): 3.49 µM
- TGI (ACHN renal): > 100 µM
- TGI (NCI-H23 lung): > 100 µM
- TGI (MALME-3M melanoma): 0.948 µM
- TGI (IGROV1 ovarian): 27.8 µM
- TGI (SNB-19 CNS): > 100 µM
- TGI (NCI-H522 lung): 5.08 µM
- TGI (HCC-2998 colon): 0.937 µM
- TGI (SK-OV-3 ovarian): > 100 µM
- TGI (M14 melanoma): 62.4 µM
- TGI (TK-10 renal): 7.51 µM
- TGI (SK-MEL-5 melanoma): 11.7 µM
- TGI (SR leukemia): 0.668 µM
- TGI (HT29 colon): > 100 µM
- TGI (RPMI-8226 leukemia): 4.81 µM
- TGI (SW-620 colon): > 100 µM
- TGI (HOP-92 NSCLC): 67.8 µM
- TGI (MDA-MB-231 breast): 88 µM
- GI50 (HCT-116 colon): 0.703 µM
- TGI (HCT-116 colon): > 100 µM
- TGI (A549 NSCLC): 77.6 µM
- TGI (MCF7 breast): > 100 µM
- TGI (SF-539 CNS): 2.27 µM
- GI50 (SN12C renal): 10.2 µM
- TGI (SN12C renal): > 100 µM
- TGI (U251 CNS): > 100 µM
- TGI (HS 578T breast): 4.98 µM
- TGI (OVCAR-4 ovarian): > 100 µM
- TGI (LOX IMVI melanoma): 72.5 µM
- GI50 (UACC-62 melanoma): 1.48 µM
- TGI (UACC-62 melanoma): 37.5 µM
- TGI (MDA-MB-435): 0.761 µM

Structure (SMILES): CC(=O)OC1CC2CC(=O)CC1N2C (stereo not drawn)
- TGI (786-0 renal): > 100 µM
- TGI (HCT-15 colon): > 100 µM
- TGI (CAKI-1 renal): > 100 µM
- TGI (MOLT-4 leukemia): > 100 µM
- TGI (SK-MEL-28 melanoma): > 100 µM
- TGI (KM12 colon): > 100 µM
- TGI (SNB-75 CNS): > 100 µM
- TGI (NCI/ADR-RES ovarian): > 100 µM
- TGI (HOP-62 NSCLC): > 100 µM
- TGI (OVCAR-5 ovarian): > 100 µM
- TGI (COLO 205 colon): > 100 µM
- TGI (RXF 393 renal): > 100 µM
- TGI (CCRF-CEM leukemia): > 100 µM
- TGI (UACC-257 melanoma): > 100 µM
- TGI (A498 renal): > 100 µM
- TGI (T-47D breast): > 100 µM
- TGI (NCI-H460 lung): > 100 µM
- TGI (K-562 leukemia): > 100 µM
- TGI (DU-145 prostate): > 100 µM
- TGI (SK-MEL-2 melanoma): > 100 µM
- TGI (UO-31 renal): > 100 µM
- TGI (SF-268 CNS): > 100 µM
- TGI (SF-295 CNS): > 100 µM
- TGI (PC-3 prostate): > 100 µM
- TGI (OVCAR-3 ovarian): > 100 µM
- TGI (MDA-N): > 100 µM
- TGI (OVCAR-8 ovarian): > 100 µM
- TGI (EKVX NSCLC): > 100 µM
- TGI (HL-60(TB) leukemia): > 100 µM
- TGI (ACHN renal): > 100 µM
- TGI (NCI-H23 lung): > 100 µM
- TGI (MALME-3M melanoma): > 100 µM
- TGI (IGROV1 ovarian): > 100 µM
- TGI (SNB-19 CNS): > 100 µM
- TGI (NCI-H522 lung): > 100 µM
- TGI (NCI-H226 lung): > 100 µM
- TGI (HCC-2998 colon): > 100 µM
- TGI (SK-OV-3 ovarian): > 100 µM
- TGI (M14 melanoma): > 100 µM
- TGI (TK-10 renal): > 100 µM
- TGI (SK-MEL-5 melanoma): > 100 µM
- TGI (SR leukemia): > 100 µM
- TGI (HT29 colon): > 100 µM
- TGI (RPMI-8226 leukemia): > 100 µM
- TGI (SW-620 colon): > 100 µM
- TGI (HOP-92 NSCLC): > 100 µM
- TGI (MDA-MB-231 breast): > 100 µM
- TGI (HCT-116 colon): > 100 µM
- TGI (A549 NSCLC): > 100 µM
- TGI (MCF7 breast): > 100 µM
- TGI (SF-539 CNS): > 100 µM
- TGI (SN12C renal): > 100 µM
- TGI (U251 CNS): > 100 µM
- TGI (HS 578T breast): > 100 µM
- TGI (OVCAR-4 ovarian): > 100 µM
- TGI (LOX IMVI melanoma): > 100 µM
- TGI (UACC-62 melanoma): > 100 µM
- TGI (MDA-MB-435): > 100 µM

From PubChem BioAssay (NCI)
